Source: ChEMBL document CHEMBL1129561 (J Med Chem, 1996)

Columns and labels:
Androgen receptor = molecular target: T1, Androgen receptor (Homo sapiens, UniProt P10275)
T1 sequence (P10275 whole entry): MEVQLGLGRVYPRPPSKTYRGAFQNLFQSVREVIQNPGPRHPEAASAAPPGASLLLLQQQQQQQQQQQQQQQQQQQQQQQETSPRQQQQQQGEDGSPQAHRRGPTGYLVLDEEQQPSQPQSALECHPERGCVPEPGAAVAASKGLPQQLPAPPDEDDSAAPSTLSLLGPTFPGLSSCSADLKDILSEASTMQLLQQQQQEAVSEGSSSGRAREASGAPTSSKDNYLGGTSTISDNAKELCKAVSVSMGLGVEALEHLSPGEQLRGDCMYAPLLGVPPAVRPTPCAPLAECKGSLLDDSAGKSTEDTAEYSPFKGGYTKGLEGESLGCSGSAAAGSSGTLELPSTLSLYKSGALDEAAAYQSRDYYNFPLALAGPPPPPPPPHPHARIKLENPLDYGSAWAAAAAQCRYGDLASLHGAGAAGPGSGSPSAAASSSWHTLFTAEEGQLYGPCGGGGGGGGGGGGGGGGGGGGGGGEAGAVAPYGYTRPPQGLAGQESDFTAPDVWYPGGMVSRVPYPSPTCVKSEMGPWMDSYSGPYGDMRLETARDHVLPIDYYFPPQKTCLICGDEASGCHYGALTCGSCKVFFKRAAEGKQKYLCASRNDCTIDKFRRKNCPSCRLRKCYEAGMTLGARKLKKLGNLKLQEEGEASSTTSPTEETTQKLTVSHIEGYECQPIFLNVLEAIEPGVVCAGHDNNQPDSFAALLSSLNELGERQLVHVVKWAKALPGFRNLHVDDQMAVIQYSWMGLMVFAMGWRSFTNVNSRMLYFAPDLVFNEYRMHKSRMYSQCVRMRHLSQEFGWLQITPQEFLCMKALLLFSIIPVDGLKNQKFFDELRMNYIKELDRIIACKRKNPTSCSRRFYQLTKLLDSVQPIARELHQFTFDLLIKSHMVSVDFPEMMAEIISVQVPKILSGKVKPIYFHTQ
Description: Binding affinity determined against human Androgen receptor

Glucocorticoid receptor [1] = molecular target: T2, Glucocorticoid receptor (Homo sapiens, UniProt P04150)
T2 sequence (P04150 whole entry): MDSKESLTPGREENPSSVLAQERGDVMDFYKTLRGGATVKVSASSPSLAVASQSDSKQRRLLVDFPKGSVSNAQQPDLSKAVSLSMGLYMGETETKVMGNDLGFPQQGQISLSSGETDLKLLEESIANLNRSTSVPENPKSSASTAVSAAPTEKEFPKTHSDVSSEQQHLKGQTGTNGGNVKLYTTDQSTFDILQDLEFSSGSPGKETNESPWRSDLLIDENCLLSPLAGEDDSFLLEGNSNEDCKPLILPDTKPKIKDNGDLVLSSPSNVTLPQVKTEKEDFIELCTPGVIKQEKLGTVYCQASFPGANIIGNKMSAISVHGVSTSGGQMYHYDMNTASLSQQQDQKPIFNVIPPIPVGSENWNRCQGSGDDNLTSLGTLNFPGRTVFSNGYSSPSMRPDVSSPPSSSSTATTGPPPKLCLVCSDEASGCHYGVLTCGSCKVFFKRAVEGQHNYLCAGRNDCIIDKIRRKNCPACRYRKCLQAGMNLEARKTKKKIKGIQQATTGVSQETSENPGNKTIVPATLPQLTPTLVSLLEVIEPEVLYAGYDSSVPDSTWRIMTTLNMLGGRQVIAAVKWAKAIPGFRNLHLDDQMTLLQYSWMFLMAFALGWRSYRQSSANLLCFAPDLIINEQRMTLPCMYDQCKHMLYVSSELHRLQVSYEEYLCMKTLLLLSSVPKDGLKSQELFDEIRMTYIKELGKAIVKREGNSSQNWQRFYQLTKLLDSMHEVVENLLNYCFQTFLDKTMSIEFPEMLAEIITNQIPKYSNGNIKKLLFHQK
Description: Binding affinity was determined for human glucocorticoid receptor(hGR).

Glucocorticoid receptor [2] = molecular target: T2, Glucocorticoid receptor; remark: listed apart in the source
Description: Inhibitory activity against human glucocorticoid receptor (hGR)

[3] = molecular target: T3, Mineralocorticoid receptor (Homo sapiens, UniProt P08235)
T3 sequence (P08235 whole entry): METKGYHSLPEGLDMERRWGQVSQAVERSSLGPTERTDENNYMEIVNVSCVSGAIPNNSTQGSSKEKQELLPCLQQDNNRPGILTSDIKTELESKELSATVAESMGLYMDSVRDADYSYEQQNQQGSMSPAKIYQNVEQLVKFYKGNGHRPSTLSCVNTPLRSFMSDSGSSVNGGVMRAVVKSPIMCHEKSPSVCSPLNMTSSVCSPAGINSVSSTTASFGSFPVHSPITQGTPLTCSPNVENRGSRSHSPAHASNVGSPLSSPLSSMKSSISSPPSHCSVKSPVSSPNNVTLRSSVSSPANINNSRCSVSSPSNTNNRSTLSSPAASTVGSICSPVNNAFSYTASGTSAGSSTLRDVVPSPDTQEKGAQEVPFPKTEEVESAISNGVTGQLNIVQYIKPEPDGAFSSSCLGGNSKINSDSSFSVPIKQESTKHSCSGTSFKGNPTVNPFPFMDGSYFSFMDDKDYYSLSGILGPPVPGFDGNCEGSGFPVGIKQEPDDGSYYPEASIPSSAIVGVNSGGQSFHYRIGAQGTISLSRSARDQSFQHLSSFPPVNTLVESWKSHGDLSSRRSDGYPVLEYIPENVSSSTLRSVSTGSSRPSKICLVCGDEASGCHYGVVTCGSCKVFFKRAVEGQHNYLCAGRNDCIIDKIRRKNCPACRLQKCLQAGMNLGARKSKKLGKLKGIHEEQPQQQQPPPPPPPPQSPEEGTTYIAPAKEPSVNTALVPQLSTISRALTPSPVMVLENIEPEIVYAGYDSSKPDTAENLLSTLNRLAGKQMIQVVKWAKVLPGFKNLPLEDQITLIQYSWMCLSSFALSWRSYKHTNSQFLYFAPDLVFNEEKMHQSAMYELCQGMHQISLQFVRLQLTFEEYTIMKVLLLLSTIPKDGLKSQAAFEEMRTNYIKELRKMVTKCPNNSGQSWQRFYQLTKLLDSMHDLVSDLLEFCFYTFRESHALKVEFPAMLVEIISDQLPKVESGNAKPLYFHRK
Description: Inhibitory activity against human mineralocorticoid receptor (hMR)

Estrogen receptor [4] = molecular target: T4, Estrogen receptor (Homo sapiens, UniProt Q92731+P03372)
Description: Inhibitory activity against human estrogen receptor

Estrogen receptor [5] = molecular target: T4, Estrogen receptor; remark: listed apart in the source
Description: Binding affinity for human estrogen receptor

With `C=C1C=C(C)CC(C)(C)C1Cc1ccc([N+](=O)[O-])cc1` (stereo unspecified) as the molecule, how does the Ki (Androgen receptor) read?
The Ki was 6.3 µM.

And the Ki (Glucocorticoid receptor [1])?
The Ki was 5.42 µM.

What about the IC50 (Glucocorticoid receptor [2]) of the same molecule?
The IC50 was over 10 µM.

And the IC50 [3]?
Its IC50 is over 10 µM.

And the IC50 (Estrogen receptor [4])?
The IC50 was over 10 µM.

What about the Ki (Estrogen receptor [5]) of the same molecule?
Its Ki is over 10 µM.
